Key:
[1] = Solubility constant in aqueous solution (Kps)
Subtilis bacteria = conditions: Cu^+ ions; cited from earlier work
Staphylococcus aureus = conditions: Cu^+ ions; cited from earlier work

| Molecule | Group (classification according to Kps value) [1] | MIC value for copper (Subtilis bacteria) | MIC value for copper (Staphylococcus aureus) |
| --- | --- | --- | --- |
| Copper(I)Phthalocyanine | B (Group B: salts with a Kps within a range that goes from a value greater than 9*10^−16 until a value equal to or less than 9*10^−11.) | – | – |
| [Cu] [copper] | – | 0.04 µM | 0.35 µM |
| Copper (I)Hydroxide | B (Group B: salts with a Kps within a range that goes from a value greater than 9*10^−16 until a value equal to or less than 9*10^−11.) | – | – |
| Copper(I) Oxide | B (Group B: salts with a Kps within a range that goes from a value greater than 9*10^−16 until a value equal to or less than 9*10^−11.) | – | – |
| [OH][Cu][OH] [Copper (II)Hydroxide] | C (Group C: salts with a Kps within a range that goes from a value greater than or equal to 1*10^−20 until a value equal to or less than 9*10^−16.) | – | – |
